In patent US7122543B2, “Substituted benzoic acid derivatives having NF-κB inhibiting action” (Daiichi Suntory Pharma Co., Ltd., priority 2001, dated 2006) one finds IC50 value and IC50 data, which are given here for 10 compounds.

Molecules are shown by their SMILES.

In the first test the test system is NF-κB. The experiment in a line: NF-κB luciferase reporter assay in A549/NF-κBLuc cells stimulated with IL-1β. In kind it is cell-based, human. The following applies: A549/NF-κBLuc cells; compound added 1 hour before IL-1β, 3 hours more incubation; luciferase activity as index. On the procedure:
Effects of Compounds on Human Lung Cancer A549 Cells (A549/NF-κBLuc) Stably Transfected with Luciferase Plasmid (pNFκB-Luc, Stratagene, U.S.A.) Having the NF-κB Regulatory Sequence
Using lipofectamine (Lifetech Oriental K.K., Tokyo), pNFκB-Luc were cotransfected with pSV2neo (Clontech, U.S.A.) into A549 cells (ATCC CCL185) according to the conventional method, and A549/NF-κBLuc stably transfected with pNFκB-Luc were selected by adding G418 sulfate (1 mg/ml, Lifetech Oriental K.K.) to the culture medium.
A compound prepared in an Example was added to A549/NF-κBLuc, then IL-1β which was able to activate the NF-κB was added at 1 hour thereafter and incubation was continued for 3 hours more. It has been made clear by using a luciferase activity as an index that the compound obtained in the Example suppresses the activation of NF-κB by stimulated with IL-1β.
Background: In a reporter assay the amount or activity of a reporter protein is the signal.
As for `COC1=C(OC)C(=O)C(Cc2ccc(-c3ccncc3)c(C(=O)N[C@@H](C)c3ccccc3)c2)=C(C)C1=O` [Example 74b, (S)-N-[5-(5,6-Dimethoxy-3-methyl-1,4-benzoquinon-2-yl)methyl-2-(4-pyridyl)benzoyl]-1-phenylethylamine], the IC50 value is over 45 µg/mL.

Still in this test, the particulars now being: Homo sapiens, A549, A549/NF-κBLuc cells; compound added 1 hour before IL-1β, 3 hours more incubation; luciferase activity as index.
For orientation: IC50 means the midpoint of a concentration-inhibition curve. A low value points to inhibition by little substance. In turn, `COC1=C(OC)C(=O)C(Cc2ccc(-c3cccc(OC)c3)c(C(=O)Nc3ccc(OC)cc3)c2)=C(C)C1=O` [Example 67, N-[5-(5,6-Dimethoxy-3-methyl-1,4-benzoquinon-2-yl)methyl-2-(3-methoxyphenyl)benzoyl]-4-methoxyaniline] had a half-inhibitory concentration (IC50) of over 45 µg/mL.

As to `COC1=C(OC)C(=O)C(Cc2ccc(-c3ccccc3OC)c(C(=O)Nc3ccc(OC)cc3)c2)=C(C)C1=O` [Example 68, N-[5-(5,6-Dimethoxy-3-methyl-1,4-benzoquinon-2-yl)methyl-2-(2-methoxyphenyl)benzoyl]-4-methoxyaniline], the IC50 was over 45 µg/mL.

As for `COC1=C(OC)C(=O)C(Cc2cccc(C(=O)Nc3ccc(C(F)(F)F)cc3)c2-c2ccncc2)=C(C)C1=O` [Example 73, N-[3-(45,6-Dimethoxy-3-methyl-1,4-benzoquinon-2-yl)methyl-2-(4-pyridyl)benzoyl]-4-trifluoromethylaniline], the IC50 is over 30 µg/mL.

Compound `COC1=C(OC)C(=O)C(Cc2ccc(-c3ccncc3)c(C(=O)N[C@@H](C)c3ccccc3)c2)=C(C)C1=O` [Example 74a, (S)-N-[5-(5,6-Dimethoxy-3-methyl-1,4-benzoquinon-2-yl)methyl-2-(4-pyridyl)benzoyl]-1-phenylethylamine] yielded an IC50 of over 45 µg/mL.

Compound `COC1=C(OC)C(=O)C(Cc2ccc(-c3ccncc3)c(C(=O)N[C@H](C)c3ccccc3)c2)=C(C)C1=O` [Example 75a, (R)-N-[5-(5,6-Dimethoxy-3-methyl-1,4-benzoquinon-2-yl)methyl-2-(4-pyridyl)benzoyl]-1-phenylethylamine] displayed an IC50 of over 45 µg/mL.

`COC1=C(OC)C(=O)C(Cc2ccc(-c3ccncc3)c(C(=O)NC3CCCCC3)c2)=C(C)C1=O` [Example 76a, N-[5-(5,6-Dimethoxy-3-methyl-1,4-benzoquinon-2-yl)methyl-2-(4-pyridyl)benzoyl]cyclohexyl-amine] showed an IC50 of over 45 µg/mL.

With `COC1=C(OC)C(=O)C(Cc2ccc(-c3ccncc3)c(C(=O)NC3CCCC3)c2)=C(C)C1=O` [Example 77a, N-[5-(5,6-Dimethoxy-3-methyl-1,4-benzoquinon-2-yl)methyl-2-(4-pyridyl)benzoyl]cyclopentylamine], the IC50 is over 45 µg/mL.

Take `COC1=C(OC)C(=O)C(Cc2ccc(-c3ccncc3)c(C(=O)NC3CC3)c2)=C(C)C1=O` [Example 78a, N-[5-(5,6-Dimethoxy-3-methyl-1,4-benzoquinon-2-yl)methyl-2-(4-pyridyl)benzoyl]cyclopropyl-amine]: the IC50 was over 45 µg/mL.

`CCC(CC)NC(=O)c1cc(CC2=C(C)C(=O)C(OC)=C(OC)C2=O)ccc1-c1ccncc1` [Example 79a, N-[5-(5,6-Dimethoxy-3-methyl-1,4-benzoquinon-2-yl)methyl-2-(4-pyridyl)benzoyl]-1-ethylpropylamine] returned an IC50 of over 45 µg/mL.
